From PubChem BioAssay AID2060899 (Molecular Pharmacology Branch, DTP, NCI, 2025)

System: 565726-208-R1-J5-PDC complex spheroids, growth inhibition
Experiment: Anticancer human tumor 565726-208-R1-J5-PDC patient-derived pancreatic adenocarcinoma cell line growth inhibition [RAS]
Settings: for IC50: curve of first compound; for viability, T/C: stronger effect = lower value
How it was run: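 Multi-cell-type spheroids: tumor cells plus HUVEC endothelial cells and mesenchymal stem cells. RAS-pathway inhibitors were combined with targeted agents, each dosed in half-log steps down from clinical Cmax, or from 10 microM when Cmax was unknown.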

[1] = second compound 0.000949 µM, first compound 0.0316 µM
[2] = second compound 0.000949 µM, first compound 0.1 µM
[3] = second compound 0.003 µM, first compound 0.0316 µM
[4] = second compound 0.003 µM, first compound 0.1 µM
[5] = second compound 0.00949 µM, first compound 0.0316 µM
[6] = second compound 0.00949 µM, first compound 0.1 µM
[7] = second compound 0.03 µM, first compound 0.0316 µM
[8] = second compound 0.03 µM, first compound 0.1 µM
[9] = second compound 0.0949 µM, first compound 0.0316 µM
[10] = second compound 0.0949 µM, first compound 0.1 µM
[11] = second compound 0.3 µM, first compound 0.0316 µM
[12] = second compound 0.3 µM, first compound 0.1 µM
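Further: spheroids exposed to compounds for seven days before readout.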
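Wherever viability, T/C is given: 100% = DMSO vehicle control viability.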

C[C@@H](NC(=O)c1ncnc(N)c1Cl)c1ncc(C(=O)Nc2cc(C(F)(F)F)c(Cl)cn2)s1 + C=CC(=O)N1CCN(c2nc(OCC3CCCN3C)nc3c(F)c(-c4nc(N)cc(C)c4C(F)(F)F)c(Cl)cc23)C(C)C1
IC50 (second compound 0.00316 µM): > 10 µM
IC50 (second compound 0.01 µM): > 10 µM
IC50 (second compound 0.0316 µM): > 10 µM
IC50 (second compound 0.1 µM): > 10 µM
IC50 (second compound 0.316 µM): > 10 µM
IC50 (second compound 1 µM): > 10 µM
viability, T/C (second compound 0.00316 µM, first compound 0.0316 µM): 119%
viability, T/C (second compound 0.00316 µM, first compound 0.1 µM): 151%
viability, T/C (second compound 0.00316 µM, first compound 0.316 µM): 88.8%
viability, T/C (second compound 0.00316 µM, first compound 1 µM): 98.3%
viability, T/C (second compound 0.00316 µM, first compound 3.16 µM): 77.7%
viability, T/C (second compound 0.00316 µM, first compound 10 µM): 78.3%
viability, T/C (second compound 0.01 µM, first compound 0.0316 µM): 95.5%
viability, T/C (second compound 0.01 µM, first compound 0.1 µM): 140%
viability, T/C (second compound 0.01 µM, first compound 0.316 µM): 94.5%
viability, T/C (second compound 0.01 µM, first compound 1 µM): 89.1%
viability, T/C (second compound 0.01 µM, first compound 3.16 µM): 91.9%
viability, T/C (second compound 0.01 µM, first compound 10 µM): 67.8%
viability, T/C (second compound 0.0316 µM, first compound 0.0316 µM): 115%
viability, T/C (second compound 0.0316 µM, first compound 0.1 µM): 129%
viability, T/C (second compound 0.0316 µM, first compound 0.316 µM): 92.8%
viability, T/C (second compound 0.0316 µM, first compound 1 µM): 99.3%
viability, T/C (second compound 0.0316 µM, first compound 3.16 µM): 88.2%
viability, T/C (second compound 0.0316 µM, first compound 10 µM): 70.9%
viability, T/C (second compound 0.1 µM, first compound 0.0316 µM): 120%
viability, T/C (second compound 0.1 µM, first compound 0.1 µM): 123%
viability, T/C (second compound 0.1 µM, first compound 0.316 µM): 102%
viability, T/C (second compound 0.1 µM, first compound 1 µM): 97.2%
viability, T/C (second compound 0.1 µM, first compound 3.16 µM): 98.7%
viability, T/C (second compound 0.1 µM, first compound 10 µM): 83.4%
viability, T/C (second compound 0.316 µM, first compound 0.0316 µM): 86.7%
viability, T/C (second compound 0.316 µM, first compound 0.1 µM): 128%
viability, T/C (second compound 0.316 µM, first compound 0.316 µM): 104%
viability, T/C (second compound 0.316 µM, first compound 1 µM): 101%
viability, T/C (second compound 0.316 µM, first compound 3.16 µM): 106%
viability, T/C (second compound 0.316 µM, first compound 10 µM): 76.9%
viability, T/C (second compound 1 µM, first compound 0.0316 µM): 89.1%
viability, T/C (second compound 1 µM, first compound 0.1 µM): 120%
viability, T/C (second compound 1 µM, first compound 0.316 µM): 108%
viability, T/C (second compound 1 µM, first compound 1 µM): 114%
viability, T/C (second compound 1 µM, first compound 3.16 µM): 86.4%
viability, T/C (second compound 1 µM, first compound 10 µM): 74.6%

CC(C)n1nc(-c2ccc3oc(N)nc3c2)c2c(N)ncnc21 + CCn1c(-c2cccnc2C(C)OC)c2c3cc(ccc31)N1CCOC(CC(NC(=O)C(C(C)C)N(C)C(=O)C3(F)CCN(C(=O)C#CC(C)(C)N(C)C)CC3)C(=O)N3CCCC(N3)C(=O)OCC(C)(C)C2)C1
IC50 (second compound 0.000949 µM): 0.0192 µM
IC50 (second compound 0.003 µM): 0.0268 µM
IC50 (second compound 0.00949 µM): 0.0245 µM
IC50 (second compound 0.03 µM): 0.0231 µM
IC50 (second compound 0.0949 µM): 0.0188 µM
IC50 (second compound 0.3 µM): 0.013 µM
viability, T/C (second compound 0.000949 µM, first compound 0.000316 µM): 95.6%
viability, T/C (second compound 0.000949 µM, first compound 0.001 µM): 91.2%
viability, T/C (second compound 0.000949 µM, first compound 0.00316 µM): 91.5%
viability, T/C (second compound 0.000949 µM, first compound 0.01 µM): 59.8%
viability, T/C [1]: 43.4%
viability, T/C [2]: 27.5%
viability, T/C (second compound 0.003 µM, first compound 0.000316 µM): 101%
viability, T/C (second compound 0.003 µM, first compound 0.001 µM): 90.5%
viability, T/C (second compound 0.003 µM, first compound 0.00316 µM): 85.2%
viability, T/C (second compound 0.003 µM, first compound 0.01 µM): 67.1%
viability, T/C [3]: 46.5%
viability, T/C [4]: 28.1%
viability, T/C (second compound 0.00949 µM, first compound 0.000316 µM): 103%
viability, T/C (second compound 0.00949 µM, first compound 0.001 µM): 93.9%
viability, T/C (second compound 0.00949 µM, first compound 0.00316 µM): 86.8%
viability, T/C (second compound 0.00949 µM, first compound 0.01 µM): 69.8%
viability, T/C [5]: 43.2%
viability, T/C [6]: 26.9%
viability, T/C (second compound 0.03 µM, first compound 0.000316 µM): 83.2%
viability, T/C (second compound 0.03 µM, first compound 0.001 µM): 91%
viability, T/C (second compound 0.03 µM, first compound 0.00316 µM): 79%
viability, T/C (second compound 0.03 µM, first compound 0.01 µM): 68.8%
viability, T/C [7]: 43%
viability, T/C [8]: 26.7%
viability, T/C (second compound 0.0949 µM, first compound 0.000316 µM): 93%
viability, T/C (second compound 0.0949 µM, first compound 0.001 µM): 92.1%
viability, T/C (second compound 0.0949 µM, first compound 0.00316 µM): 82.5%
viability, T/C (second compound 0.0949 µM, first compound 0.01 µM): 62.1%
viability, T/C [9]: 40.2%
viability, T/C [10]: 25.1%
viability, T/C (second compound 0.3 µM, first compound 0.000316 µM): 89.3%
viability, T/C (second compound 0.3 µM, first compound 0.001 µM): 85.1%
viability, T/C (second compound 0.3 µM, first compound 0.00316 µM): 75.2%
viability, T/C (second compound 0.3 µM, first compound 0.01 µM): 54.8%
viability, T/C [11]: 33.8%
viability, T/C [12]: 24%

NC1c2ccccc2OC12CCN(c1cnc3c(N4CCCc5ncccc54)n[nH]c3n1)CC2 (stereo unspecified) + CCn1c(-c2cccnc2C(C)OC)c2c3cc(ccc31)N1CCOC(CC(NC(=O)C(C(C)C)N(C)C(=O)C3(F)CCN(C(=O)C#CC(C)(C)N(C)C)CC3)C(=O)N3CCCC(N3)C(=O)OCC(C)(C)C2)C1
IC50 (second compound 0.000949 µM): > 10 µM
IC50 (second compound 0.003 µM): > 10 µM
IC50 (second compound 0.00949 µM): > 10 µM
IC50 (second compound 0.03 µM): > 10 µM
IC50 (second compound 0.0949 µM): > 10 µM
IC50 (second compound 0.3 µM): 8.09 µM
viability, T/C [1]: 82.5%
viability, T/C [2]: 77.5%
viability, T/C (second compound 0.000949 µM, first compound 0.316 µM): 72.6%
viability, T/C (second compound 0.000949 µM, first compound 1 µM): 60.9%
viability, T/C (second compound 0.000949 µM, first compound 3.16 µM): 65.7%
viability, T/C (second compound 0.000949 µM, first compound 10 µM): 56.9%
viability, T/C [3]: 82.6%
viability, T/C [4]: 76.8%
viability, T/C (second compound 0.003 µM, first compound 0.316 µM): 70%
viability, T/C (second compound 0.003 µM, first compound 1 µM): 65%
viability, T/C (second compound 0.003 µM, first compound 3.16 µM): 62.9%
viability, T/C (second compound 0.003 µM, first compound 10 µM): 60.5%
viability, T/C [5]: 76.3%
viability, T/C [6]: 85.5%
viability, T/C (second compound 0.00949 µM, first compound 0.316 µM): 70%
viability, T/C (second compound 0.00949 µM, first compound 1 µM): 65%
viability, T/C (second compound 0.00949 µM, first compound 3.16 µM): 64.8%
viability, T/C (second compound 0.00949 µM, first compound 10 µM): 55.5%
viability, T/C [7]: 85.4%
viability, T/C [8]: 76.3%
viability, T/C (second compound 0.03 µM, first compound 0.316 µM): 73.4%
viability, T/C (second compound 0.03 µM, first compound 1 µM): 62.7%
viability, T/C (second compound 0.03 µM, first compound 3.16 µM): 58.8%
viability, T/C (second compound 0.03 µM, first compound 10 µM): 58.5%
viability, T/C [9]: 78.8%
viability, T/C [10]: 75.6%
viability, T/C (second compound 0.0949 µM, first compound 0.316 µM): 71.5%
viability, T/C (second compound 0.0949 µM, first compound 1 µM): 65%
viability, T/C (second compound 0.0949 µM, first compound 3.16 µM): 58.5%
viability, T/C (second compound 0.0949 µM, first compound 10 µM): 57%
viability, T/C [11]: 72.8%
viability, T/C [12]: 68.2%
viability, T/C (second compound 0.3 µM, first compound 0.316 µM): 68.8%
viability, T/C (second compound 0.3 µM, first compound 1 µM): 59.5%
viability, T/C (second compound 0.3 µM, first compound 3.16 µM): 54.2%
viability, T/C (second compound 0.3 µM, first compound 10 µM): 49.5%
